The values that follow come from ChEMBL document CHEMBL4725342, “Design, synthesis and structure-activity relationship study of piperazinone-containing thieno[3,2-d]pyrimidine derivatives as new PI3Kδ inhibitors” (Bioorg Med Chem Lett, 2020).

SMILES strings stand for the structures. pIC50: −log10 of the molar value.

In general, pIC50 refers to the negative decadic logarithm of the IC50, by convention in mol/L.

For one experiment, the species on record is Homo sapiens. Put plainly: Selectivity index, ratio of IC50 for PI3Kalpha (unknown origin) to IC50 for PI3Kdelta (unknown origin).
The target in experiment [1] is T1, Phosphatidylinositol 4,5-bisphosphate 3-kinase catalytic subunit delta isoform (Homo sapiens, UniProt O00329).
T1 sequence (O00329 whole entry): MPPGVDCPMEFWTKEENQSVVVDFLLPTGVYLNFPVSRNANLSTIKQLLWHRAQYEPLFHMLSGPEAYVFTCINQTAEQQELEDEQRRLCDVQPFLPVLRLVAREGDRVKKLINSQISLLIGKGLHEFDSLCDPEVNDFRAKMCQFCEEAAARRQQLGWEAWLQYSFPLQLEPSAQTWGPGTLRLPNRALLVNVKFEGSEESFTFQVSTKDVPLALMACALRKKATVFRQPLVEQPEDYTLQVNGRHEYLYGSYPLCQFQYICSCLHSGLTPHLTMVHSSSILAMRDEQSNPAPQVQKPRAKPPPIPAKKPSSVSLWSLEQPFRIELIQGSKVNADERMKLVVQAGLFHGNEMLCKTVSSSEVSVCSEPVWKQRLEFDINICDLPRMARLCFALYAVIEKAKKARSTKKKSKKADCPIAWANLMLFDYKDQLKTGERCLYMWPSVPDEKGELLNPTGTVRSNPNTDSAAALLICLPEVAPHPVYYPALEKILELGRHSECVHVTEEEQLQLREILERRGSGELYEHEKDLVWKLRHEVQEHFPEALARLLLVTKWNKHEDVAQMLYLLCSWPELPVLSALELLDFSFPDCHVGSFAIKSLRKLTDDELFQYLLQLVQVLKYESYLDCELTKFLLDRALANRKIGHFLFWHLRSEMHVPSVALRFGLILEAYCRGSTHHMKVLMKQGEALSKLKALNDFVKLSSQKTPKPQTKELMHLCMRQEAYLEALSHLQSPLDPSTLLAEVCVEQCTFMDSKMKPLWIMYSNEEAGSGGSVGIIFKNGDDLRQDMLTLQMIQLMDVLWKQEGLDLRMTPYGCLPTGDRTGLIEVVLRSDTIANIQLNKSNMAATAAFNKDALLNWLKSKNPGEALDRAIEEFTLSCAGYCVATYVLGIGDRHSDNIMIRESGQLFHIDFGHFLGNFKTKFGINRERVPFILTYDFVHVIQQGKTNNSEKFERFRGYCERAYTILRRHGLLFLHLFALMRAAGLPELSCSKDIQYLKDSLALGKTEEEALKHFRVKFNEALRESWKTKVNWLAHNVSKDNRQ
Put plainly: Inhibition of PI3Kdelta (unknown origin).

The target in experiment [2] is Phosphatidylinositol 4,5-bisphosphate 3-kinase catalytic subunit alpha isoform (Homo sapiens, UniProt P42336). Put plainly: Inhibition of PI3Kalpha (unknown origin).
Phosphatidylinositol 4,5-bisphosphate 3-kinase catalytic subunit alpha isoform, sequence (P42336 whole entry, canonical isoform): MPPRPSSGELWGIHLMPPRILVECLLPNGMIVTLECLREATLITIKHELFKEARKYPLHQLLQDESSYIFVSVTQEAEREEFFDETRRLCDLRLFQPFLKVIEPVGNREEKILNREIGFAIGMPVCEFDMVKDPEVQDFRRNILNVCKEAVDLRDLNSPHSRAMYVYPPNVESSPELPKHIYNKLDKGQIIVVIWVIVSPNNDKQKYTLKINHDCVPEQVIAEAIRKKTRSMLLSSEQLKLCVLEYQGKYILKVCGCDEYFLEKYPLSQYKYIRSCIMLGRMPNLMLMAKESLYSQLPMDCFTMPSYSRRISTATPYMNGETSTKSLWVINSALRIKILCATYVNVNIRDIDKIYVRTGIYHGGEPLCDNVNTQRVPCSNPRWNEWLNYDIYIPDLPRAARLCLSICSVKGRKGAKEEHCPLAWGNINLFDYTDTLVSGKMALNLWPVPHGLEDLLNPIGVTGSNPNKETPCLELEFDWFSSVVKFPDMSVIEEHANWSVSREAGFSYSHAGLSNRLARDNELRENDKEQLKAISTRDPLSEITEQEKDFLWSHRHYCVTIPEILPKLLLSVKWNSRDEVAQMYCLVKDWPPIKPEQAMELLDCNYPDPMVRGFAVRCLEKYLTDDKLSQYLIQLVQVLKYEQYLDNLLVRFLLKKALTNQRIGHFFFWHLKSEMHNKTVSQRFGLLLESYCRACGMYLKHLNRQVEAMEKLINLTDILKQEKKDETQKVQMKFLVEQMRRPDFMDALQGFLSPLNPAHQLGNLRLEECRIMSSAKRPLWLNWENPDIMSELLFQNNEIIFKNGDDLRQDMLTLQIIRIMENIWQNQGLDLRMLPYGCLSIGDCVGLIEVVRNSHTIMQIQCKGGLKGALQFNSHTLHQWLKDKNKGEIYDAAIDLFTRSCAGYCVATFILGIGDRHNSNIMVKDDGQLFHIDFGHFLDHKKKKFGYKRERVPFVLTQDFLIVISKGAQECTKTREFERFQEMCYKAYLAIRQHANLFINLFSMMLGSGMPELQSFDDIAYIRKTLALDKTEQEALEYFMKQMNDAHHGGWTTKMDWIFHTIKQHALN
In experiment [3] the target is Phosphatidylinositol 4,5-bisphosphate 3-kinase catalytic subunit beta isoform (Homo sapiens, UniProt P42338). Put plainly: Inhibition of PI3Kbeta (unknown origin).
Phosphatidylinositol 4,5-bisphosphate 3-kinase catalytic subunit beta isoform, sequence (P42338 whole entry, canonical isoform): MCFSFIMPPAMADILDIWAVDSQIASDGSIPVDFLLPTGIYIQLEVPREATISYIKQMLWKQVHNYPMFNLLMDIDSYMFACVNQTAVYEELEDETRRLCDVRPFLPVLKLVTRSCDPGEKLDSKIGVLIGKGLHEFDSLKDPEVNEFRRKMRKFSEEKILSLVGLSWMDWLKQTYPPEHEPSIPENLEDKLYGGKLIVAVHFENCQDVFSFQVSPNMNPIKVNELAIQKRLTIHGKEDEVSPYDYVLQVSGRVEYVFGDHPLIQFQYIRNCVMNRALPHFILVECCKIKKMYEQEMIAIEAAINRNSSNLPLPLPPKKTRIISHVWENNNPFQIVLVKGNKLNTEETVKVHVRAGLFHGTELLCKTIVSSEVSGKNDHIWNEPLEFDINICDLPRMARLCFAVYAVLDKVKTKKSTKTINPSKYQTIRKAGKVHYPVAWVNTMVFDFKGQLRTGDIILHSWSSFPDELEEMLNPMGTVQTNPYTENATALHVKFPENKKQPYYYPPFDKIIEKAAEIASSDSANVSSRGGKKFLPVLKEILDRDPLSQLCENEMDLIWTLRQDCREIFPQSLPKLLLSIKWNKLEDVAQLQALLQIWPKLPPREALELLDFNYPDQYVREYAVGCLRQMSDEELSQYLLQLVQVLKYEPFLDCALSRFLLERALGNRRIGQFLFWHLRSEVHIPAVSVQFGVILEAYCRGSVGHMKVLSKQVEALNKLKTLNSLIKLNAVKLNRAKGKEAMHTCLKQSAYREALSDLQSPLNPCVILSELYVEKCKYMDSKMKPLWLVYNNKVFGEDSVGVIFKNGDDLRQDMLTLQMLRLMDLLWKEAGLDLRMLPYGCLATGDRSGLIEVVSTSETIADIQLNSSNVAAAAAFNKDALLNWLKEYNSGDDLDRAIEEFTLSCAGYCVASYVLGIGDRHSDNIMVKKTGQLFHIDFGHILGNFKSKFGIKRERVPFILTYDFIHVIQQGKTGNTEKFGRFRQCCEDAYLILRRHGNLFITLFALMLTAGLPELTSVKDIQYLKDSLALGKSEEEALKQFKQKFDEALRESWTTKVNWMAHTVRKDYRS
The subject of the next experiment is HEK293. Put plainly: Cytotoxicity against human HEK293 cells assessed as reduction in cell viability by MTS assay. It counts as cell-based. A general note: Formazan colour is commonly taken as a measure of viable cells.
In a further experiment the test system is JeKo-1. Put plainly: Antiproliferative activity against human JeKo-1 assessed as reduction in cell growth by MTS assay. In kind it is functional, cell-based.
The next experiment relates to Vero. Put plainly: Cytotoxicity against monkey Vero cells assessed as reduction in cell viability by MTS assay. Conditions: Chlorocebus sabaeus. It counts as cell-based.
The next experiment deals with L02. Put plainly: Cytotoxicity against human L02 cells assessed as reduction in cell viability by MTS assay. It counts as cell-based.
Another experiment concerns OCI-Ly10. Put plainly: Antiproliferative activity against human OCILY10 assessed as reduction in cell growth by MTS assay. In kind it is functional, cell-based.
Another experiment concerns OCI-Ly3. Put plainly: Antiproliferative activity against human OCILY3 assessed as reduction in cell growth by MTS assay. In kind it is functional, cell-based.
A further experiment deals with SU-DHL-6. Put plainly: Antiproliferative activity against human SU-DHL-6 assessed as reduction in cell growth by MTS assay. It counts as functional, cell-based.
For experiment [4], the target named is Phosphatidylinositol 4,5-bisphosphate 3-kinase catalytic subunit gamma isoform (Homo sapiens, UniProt P48736). Put plainly: Inhibition of PI3Kgamma (unknown origin).
Phosphatidylinositol 4,5-bisphosphate 3-kinase catalytic subunit gamma isoform, sequence (P48736 whole entry, canonical isoform): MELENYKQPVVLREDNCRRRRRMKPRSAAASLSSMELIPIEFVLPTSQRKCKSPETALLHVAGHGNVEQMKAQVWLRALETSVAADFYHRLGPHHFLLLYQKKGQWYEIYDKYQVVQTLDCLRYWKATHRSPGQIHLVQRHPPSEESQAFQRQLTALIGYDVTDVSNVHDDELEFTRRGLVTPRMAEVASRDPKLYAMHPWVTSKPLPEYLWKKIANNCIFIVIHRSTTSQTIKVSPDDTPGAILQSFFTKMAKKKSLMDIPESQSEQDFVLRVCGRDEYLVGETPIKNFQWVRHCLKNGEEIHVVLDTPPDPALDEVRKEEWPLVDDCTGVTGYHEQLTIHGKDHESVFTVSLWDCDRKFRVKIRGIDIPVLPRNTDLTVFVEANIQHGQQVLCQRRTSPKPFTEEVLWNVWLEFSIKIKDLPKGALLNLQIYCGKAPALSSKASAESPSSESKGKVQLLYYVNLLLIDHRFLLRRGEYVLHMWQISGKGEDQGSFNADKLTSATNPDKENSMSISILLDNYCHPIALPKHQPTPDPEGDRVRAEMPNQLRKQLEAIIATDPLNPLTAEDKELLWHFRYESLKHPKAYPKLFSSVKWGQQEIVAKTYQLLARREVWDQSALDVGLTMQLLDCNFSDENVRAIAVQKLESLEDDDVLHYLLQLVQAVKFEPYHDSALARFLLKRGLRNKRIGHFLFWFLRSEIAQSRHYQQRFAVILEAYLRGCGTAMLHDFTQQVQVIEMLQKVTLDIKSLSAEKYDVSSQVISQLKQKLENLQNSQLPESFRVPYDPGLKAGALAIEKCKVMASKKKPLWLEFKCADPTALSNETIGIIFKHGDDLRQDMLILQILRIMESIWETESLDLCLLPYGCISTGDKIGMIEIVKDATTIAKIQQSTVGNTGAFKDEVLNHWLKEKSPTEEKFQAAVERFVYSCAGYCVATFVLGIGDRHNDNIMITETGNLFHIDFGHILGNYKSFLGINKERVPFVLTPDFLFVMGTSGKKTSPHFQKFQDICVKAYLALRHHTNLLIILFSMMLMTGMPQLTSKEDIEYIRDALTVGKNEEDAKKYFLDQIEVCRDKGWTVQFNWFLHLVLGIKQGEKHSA

Take `CCc1nc2ccccc2n1-c1nc(N2CCOCC2)c2sc(CN3CCN(CC(N)=O)C(=O)C3)cc2n1`: the Ratio IC50 in the experiment listed under Homo sapiens was 7.1. The pIC50 in experiment [1] is 7.92.
Take `CCc1nc2ccccc2n1-c1nc(N2CCOCC2)c2sc(CN3CCN(C(=O)C4CCC4)CC3=O)cc2n1`: the pIC50 is 6.93 in experiment [2]; 6.78 in experiment [3]; less than 4.70 in the experiment on HEK293; 6.92 with JeKo-1; less than 4.70 in the experiment on Vero; 8.85 in experiment [1]. Further, the pIC50 in the experiment on L02 is less than 4.70; with OCI-Ly10 it was less than 5.00; in the experiment on OCI-Ly3, 5.82; with SU-DHL-6, 7.10; in [4], 6.52.
Regarding `CCc1nc2ccccc2n1-c1nc(N2CCOCC2)c2sc(CN3CCN(C4CCCC4)CC3)cc2n1`, in the experiment filed under Homo sapiens, the Ratio IC50 is 31. In addition, the negative-log IC50 (pIC50) in [1] is 7.38.
The corresponding values for `CCCS(=O)(=O)N1CCN(Cc2cc3nc(-n4c(CC)nc5ccccc54)nc(N4CCOCC4)c3s2)C(=O)C1` are 4 and 8.46.
For `C=CC(=O)N1CCN(Cc2cc3nc(-n4c(CC)nc5ccccc54)nc(N4CCOCC4)c3s2)C(=O)C1`, the Ratio IC50 in the experiment listed under Homo sapiens stood at 43. The pIC50 in experiment [1] was 8.54.
The corresponding values for `CCc1nc2ccccc2n1-c1nc(N2CCOCC2)c2sc(CN3CCN(CC(N)=O)CC3=O)cc2n1` are 25 and 8.21.
The corresponding values for `CCc1nc2ccccc2n1-c1nc(N2CCOCC2)c2sc(CN3CCN(C4CCC5(CC4)OCCO5)CC3=O)cc2n1` are 13 and 8.66.
In the same order, the values of `CCc1nc2ccccc2n1-c1nc(N2CCOCC2)c2sc(CN3CCN(c4cccnc4)C(=O)C3)cc2n1` are 12 and 7.89.
In the case of `CCc1nc2ccccc2n1-c1nc(N2CCOCC2)c2sc(CN3CCN(C4CCC(N5CCCC5)CC4)CC3=O)cc2n1` (stereo not drawn), the Ratio IC50 in the experiment filed under Homo sapiens amounted to 8. Besides, the pIC50 in [1] is 7.85.
As to `CCc1nc2ccccc2n1-c1nc(N2CCOCC2)c2sc(CN3CCN(C4CCC(=O)CC4)CC3=O)cc2n1`, in experiment [1], the negative logarithm of the IC50 (pIC50) is 8.80.
`CCc1nc2ccccc2n1-c1nc(N2CCOCC2)c2sc(CN3CCN(CC)C(=O)C3)cc2n1`: the Ratio IC50 in the experiment filed under Homo sapiens is 10. Further, in [1], the pIC50 is 8.39.
In the same order, the values of `CCc1nc2ccccc2n1-c1nc(N2CCOCC2)c2sc(CN3CCN(C)CC3=O)cc2n1` are 7.7 and 8.35.
Turning to `CC[C@H](Nc1ncnc2[nH]cnc12)c1nc2cccc(F)c2c(=O)n1-c1ccccc1` [IDELALISIB], the pIC50 was less than 4.70 with HEK293; 6.92 in the experiment on JeKo-1; less than 4.70 with Vero; less than 4.70 in the experiment on L02; less than 5.00 in the experiment with OCI-Ly10; 5.28 in the experiment on OCI-Ly3. For the same molecule, the pIC50 with SU-DHL-6 was 6.92.
For the molecule `CCc1nc2ccccc2n1-c1nc(N2CCOCC2)c2sc(CN3CCN(CC4CC4)C(=O)C3)cc2n1`, in the experiment listed under Homo sapiens, the Ratio IC50 stood at 49. In experiment [1], this molecule gave a pIC50 of 8.60.
As for `CCc1nc2ccccc2n1-c1nc(N2CCOCC2)c2sc(CN3CCN(CC(F)(F)F)CC3=O)cc2n1`, the Ratio IC50 in the experiment listed under Homo sapiens was determined as 32. For the same molecule, the pIC50 in [1] was 8.20.
In the same order, the values of `CCc1nc2ccccc2n1-c1nc(N2CCOCC2)c2sc(CN3CCN(C4CCC(N(C)C)CC4)CC3=O)cc2n1` (stereo not drawn) are 36 and 7.85.
For the molecule `CCc1nc2ccccc2n1-c1nc(N2CCOCC2)c2sc(CN3CCN(S(C)(=O)=O)CC3=O)cc2n1`, the Ratio IC50 in the experiment listed under Homo sapiens came to 10. This molecule also had a pIC50 in experiment [1] of 8.66.
As to `CCc1nc2ccccc2n1-c1nc(N2CCOCC2)c2sc(CN3CCN(c4nccs4)C(=O)C3)cc2n1`, the Ratio IC50 in the experiment listed under Homo sapiens was determined as 7.7. The pIC50 in experiment [1] was 8.68.
The corresponding values for `CCc1nc2ccccc2n1-c1nc(N2CCOCC2)c2sc(CN3CCN(C(=O)C4CCCCC4)CC3=O)cc2n1` are 43 and 8.10.
The corresponding values for `CCc1nc2ccccc2n1-c1nc(N2CCOCC2)c2sc(CN3CCN(C4CCN(C)CC4)CC3=O)cc2n1` are 25 and 7.82.
The corresponding values for `CCc1nc2ccccc2n1-c1nc(N2CCOCC2)c2sc(CN3CCN(C4CCSCC4)CC3=O)cc2n1` are 56 and 8.32.
Regarding `CCc1nc2ccccc2n1-c1nc(N2CCOCC2)c2sc(CN3CCN(C4CCC(F)(F)CC4)CC3=O)cc2n1`, the Ratio IC50 in the experiment filed under Homo sapiens is 71. This molecule had a pIC50 in experiment [1] of 8.42.
In the case of `CCc1nc2ccccc2n1-c1nc(N2CCOCC2)c2sc(CN3CCN(c4cnn(C)c4)C(=O)C3)cc2n1`, the Ratio IC50 in the experiment filed under Homo sapiens stood at 24. In experiment [1], this molecule showed a pIC50 of 8.47.
The corresponding values for `CCc1nc2ccccc2n1-c1nc(N2CCOCC2)c2sc(CN3CCN(C4CCC(O)CC4)C(=O)C3)cc2n1` (stereo not drawn) are 7.7 and 8.24.
For `CCc1nc2ccccc2n1-c1nc(N2CCOCC2)c2sc(CN3CCN([C@H]4CC[C@H](O)CC4)C(=O)C3)cc2n1`, the Ratio IC50 in the experiment listed under Homo sapiens worked out at 35. Also, in experiment [1], the negative logarithm of the IC50 (pIC50) was 8.68.
In the same order, the values of `CCc1nc2ccccc2n1-c1nc(N2CCOCC2)c2sc(CN3CCN(S(C)(=O)=O)CC3)cc2n1` are 2.4 and 8.39.
As to `CCc1nc2ccccc2n1-c1nc(N2CCOCC2)c2sc(CN3CCN(C(=O)C4CCCC4)CC3=O)cc2n1`, in the experiment listed under Homo sapiens, the Ratio IC50 was 95. The molecule further showed a pIC50 in experiment [1] of 8.70.
With `CCc1nc2ccccc2n1-c1nc(N2CCOCC2)c2sc(CN3CCN(C4CCOCC4)CC3=O)cc2n1`, in the experiment filed under Homo sapiens, the Ratio IC50 came out at 61. This molecule showed a pIC50 in experiment [1] of 8.21.
`CCc1nc2ccccc2n1-c1nc(N2CCOCC2)c2sc(CN3CCN(C4CCCCC4)CC3=O)cc2n1`: the Ratio IC50 in the experiment listed under Homo sapiens is 21. Further, the pIC50 in experiment [1] was 7.92.
The corresponding values for `CCc1nc2ccccc2n1-c1nc(N2CCOCC2)c2sc(CN3CCN(C(C)C)CC3=O)cc2n1` are 53 and 8.68.
The corresponding values for `CCc1nc2ccccc2n1-c1nc(N2CCOCC2)c2sc(CN3CCN(C(C)=O)CC3=O)cc2n1` are 35 and 8.49.
The corresponding values for `CCc1nc2ccccc2n1-c1nc(N2CCOCC2)c2sc(CN3CCN(CC(=O)N4CCOCC4)C(=O)C3)cc2n1` are 11 and 7.82.
Take `CCc1nc2ccccc2n1-c1nc(N2CCOCC2)c2sc(CN3CCN(C)C(=O)C3)cc2n1`: in the experiment listed under Homo sapiens, the Ratio IC50 was determined as 53. The molecule further had a pIC50 in [1] of 8.31.
In the same order, the values of `CCc1nc2ccccc2n1-c1nc(N2CCOCC2)c2sc(CN3CCN(C(=O)[C@H](C)O)CC3=O)cc2n1` are 49 and 8.44.
For `CCc1nc2ccccc2n1-c1nc(N2CCOCC2)c2sc(CN3CCN(S(=O)(=O)CC)CC3=O)cc2n1`, the Ratio IC50 in the experiment listed under Homo sapiens was determined as 10. Moreover, the pIC50 in experiment [1] was 8.36.
The corresponding values for `CCc1nc2ccccc2n1-c1nc(N2CCOCC2)c2sc(CN3CCNC(=O)C3)cc2n1` are 13 and 7.70.
In the same order, the values of `CCc1nc2ccccc2n1-c1nc(N2CCOCC2)c2sc(CN3CCN(C(=O)OC(C)(C)C)CC3=O)cc2n1` are 52 and 7.92.
The corresponding values for `CCc1nc2ccccc2n1-c1nc(N2CCOCC2)c2sc(CN3CCN(CC4CC4)CC3=O)cc2n1` are 64 and 8.20.
`CCc1nc2ccccc2n1-c1nc(N2CCOCC2)c2sc(CN3CCN(S(=O)(=O)C4CC4)CC3)cc2n1`: the Ratio IC50 in the experiment listed under Homo sapiens came to 13. Further, in [1], the pIC50 was 8.32.
In the same order, the values of `CCc1nc2ccccc2n1-c1nc(N2CCOCC2)c2sc(CN3CCN(S(=O)(=O)C4CC4)CC3=O)cc2n1` are 38 and 8.92.
